Measurements taken from patent publication US20090246212A1, “DEVELOPMENT OF METHOD FOR SCREENING FOR DRUG CAPABLE OF IMPROVING PRODUCTION OF REGULATORY T CELLS AND METHOD FOR PRODUCING REGULATORY T CELLS USING IMMUNOSUPPRESSIVE MACROLIDE ANTIBIOTIC” (KYOTO UNIVERSITY, priority 2005, published 2009).

How the values were obtained:
[1] = tested on: CD45RA^+CD25^−CD4^+ T cells; assay: Expansion culture of CD45RA^+CD25^−CD4^+ T cells with anti-CD3/CD28 beads and IL-2, rapamycin added; assay type: cell-based, human
Protocol: Venous blood was obtained from healthy volunteers (human). Peripheral blood mononuclear cell (PBMC) was isolated by Ficoll-Hypaque (Amersham Biosciences-Uppsala) density gradient centrifugation. The cells were stained with allophycocyanin (APC)-conjugated anti-CD4 monoclonal antibody (mAb), phycoerythrin (PE)-conjugated anti-CD25 mAb, and fluorescein isothiocyanate (FITC)-conjugated anti-CD45RA mAb for 30 min at 4° C. in the dark, after which the following six different cell fractions were isolated using a BD FACSAria cell sorter (Becton Dickinson)(see FIG. 1A).
CD45RA^+CD25^+CD4^+ T cells or CD45RA^+CD25^−CD4^+ T cells (5×10̂4 cells/well) separated as described above were stimulated with anti-human CD3 and CD28 conjugate beads in a ratio of 4 beads per cell in a 96-well round-bottomed culture plate containing 200 μl per well of a proliferation medium (AlyS505N (produced by Cell Science & Technology Institute) supplemented with 2% human AB serum) in the presence of human IL-2 (1000 U/ml, produced by Cell Science & Technology Institute). Rapamycin (20 nM, produced by Sigma) was added as appropriate. Every 3 to 4 days, half of the medium was replaced with a fresh proliferation medium containing IL-2. If necessary, the cells were separated and repeatedly re-stimulated with anti-CD3/CD28 antibody conjugated beads every 10 to 14 days. Two days before functional assay, the anti-CD3/CD28 antibody conjugated beads were removed magnetically, and the cells were cultured along with 100 U/ml IL-2 in the absence of rapamycin. After 3 times of washing, the cells were used for functional assay.

[2] = tested on: CD45RA^+CD25^−CD4^+ T cells; assay: FACS phenotype analysis of the T cell line from CD45RA^+CD25^−CD4^+ T cells cultured with rapamycin; assay type: cell-based, human; conditions: rapamycin 20 nM from day 40, collected day 50
Protocol: PBMC derived from the subjects, or expanded T cell line were incubated with various antibodies for 30 min at 4° C. in the dark, washed, and analyzed using a BD FACSAria cell sorter and a FACSDiVA software (Becton Dickinson). The antibodies used were perCP-conjugated anti-CD4 mAb, biotin-conjugated anti-CD25 mAb, FITC-conjugated anti-CD45RA mAb, PE-conjugated anti-CD45RB mAb, anti-CD45RO mAb, anti-CD62L mAb, anti-CD38 mAb, anti-GITR mAb, and anti-TNFRII mAb. For intracellular staining with CTLA-4, the cells were subjected to cell surface staining, fixation, and permeabilization with Cytofix/Cytoperm solution (Becton Dickinson), and then intracellularly stained with PE-conjugated anti-CTLA-4.
(§1) CD45RA^+CD25^+CD4^+ T cells or CD45RA^+CD25^−CD4^+ T cells in human peripheral blood separated in the same manner as Example 1 (5×10̂4 cells/well) were stimulated with anti-human CD3 and CD28 conjugate beads in a ratio of 4 beads per cell in a 96-well round-bottomed culture plate containing 200 μl per well of a proliferation medium (AlyS505N (produced by Cell Science & Technology Institute) supplemented with 2% human AB serum) in the presence of human IL-2 (1000 U/ml, produced by Cell Science & Technology Institute). Rapamycin (20 nM, produced by Sigma) was added to the medium 0 or 40 days after the start of cultivation. Every 3 to 4 days, half of the medium was replaced with a fresh proliferation medium containing IL-2. If necessary, the cells were separated and repeatedly re-stimulated with anti-CD3/CD28 antibody conjugate beads every 10 to 14 days. Fifty days after the start of cultivation, the cells were collected and used for FACS analysis.
Expanded T cell lines were incubated with various antibodies for 30 minutes at 4° C. in the dark, washed, and analyzed using BD FACSAria cell sorter and FACSDiVA software (Becton Dickinson). The antibodies and staining conditions used were the same as Example 1.

[3] = tested on: CD45RA^+CD25^+CD4^+ T cell line; assay: Mixed lymphocyte reaction with trans-well, rapamycin-cultured CD45RA^+CD25^+CD4^+ T cell line; assay type: cell-based, human; conditions: rapamycin 20 nM from day 40
Protocol: as §1, with “medium” for “medium 0 or”, “functional assay.” for “FACS analysis.”
Total CD4^+ T cells in peripheral blood were isolated in the same manner as Example 1. […] The culture product was collected, and [3H] thymidine uptake was measured using 1450 Microbeta TriLux (Wallac).

Candida albicans = conditions: both in vitro and in vivo, particularly against Candida albicans; cited from earlier work
[4] = used alone or in combination with picibanil; cited from earlier work
[5] = tested on: experimental allergic encephalomyelitis model; conditions: model of multiple sclerosis; cited from earlier work
[6] = tested on: adjuvant-induced arthritis model; conditions: model of rheumatoid arthritis; cited from earlier work

## CO[C@H]1C[C@@H]2CC[C@@H](C)[C@@](O)(O2)C(=O)C(=O)N2CCCC[C@H]2C(=O)O[C@H]([C@H](C)C[C@@H]2CC[C@@H](O)[C@H](OC)C2)CC(=O)[C@H](C)/C=C(\C)[C@@H](O)[C@@H](OC)C(=O)[C@H](C)C[C@H](C)/C=C/C=C/C=C/1C [rapamycin]
[1]; rapamycin 20 nM added 19 days after start of cultivation
  influence on the proliferation of the T cell line: almost no influence
[1]; rapamycin 20 nM from the start of cultivation, compared with cultivation in the absence of rapamycin
  proliferation of CD45RA^+CD25^−CD4^+ T cells: slightly suppressed
[1]; rapamycin 20 nM from the start of cultivation, about 35 days after start
  increase of cell number in the culture product: about 700 times
[2]
  CD25 expression relative to CD45RA^−CD25^high+CD4^+ T cells in peripheral blood: about ⅕
  CD45RA expression intensity relative to CD45RA^+CD25^−CD4^+ T cells at the start of cultivation: about 1 time
  CD45RO phenotype of the T cell line: negative
  CD62L expression relative to CD45RA^−CD25^high+CD4^+ T cells in peripheral blood: about ⅓
  GITR / CTLA4 / CD45RB phenotype of the T cell line: GITR^+CTLA4^+CD45RB^high+
[3]; conditions that allow cell contact
  T cell line's effect on proliferation of total CD4^+ T cells: strongly suppressed
[3]; contact blocked with the trans-well
  suppression of the proliferation of total CD4^+ T cells by the T cell line: interrupted
Candida albicans
  antifungal activity: possess antifungal activity
[4]
  antitumor activity: possess antitumor activity
[5]
  efficacy in experimental allergic encephalomyelitis model: effective
[6]
  efficacy in adjuvant-induced arthritis model: effective
